Assay results taken from the supplement of paper PMC10307832.

How the values were obtained:
Assay in all cases: relative viability (nuclei count vs DMSO), 5 days (fraction); higher = more cells survive
Tanzisertib + Bortezomib = compound: O[C@H]1CC[C@H](Nc2ncc3nc(Nc4c(F)cc(F)cc4F)n([C@H]4CCOC4)c3n2)CC1 [Tanzisertib] + CC(C)C[C@H](NC(=O)[C@H](Cc1ccccc1)NC(=O)c1cnccn1)B(O)O [Bortezomib] (partner 0.002 µM)
Summary of the method: (§1)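 Relative viability equals treated-well nuclei counts divided by vehicle-well nuclei counts. Counts came from 4× images of lung cancer cell lines grown in 1536-well plates for 5 days after pin-tool dosing on the day after seeding. Dosing used one drug alone or a fixed anchor-drug dose plus five library-drug doses (not always all listed) in √10 steps, and values are medians of duplicate plates.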

[1] = compound: C[C@@H](N)c1ccc(C(=O)Nc2ccnc3[nH]ccc23)cc1 + C[C@@H](Oc1cc(-c2cnn(C3CCNCC3)c2)cnc1N)c1c(Cl)ccc(F)c1Cl [Crizotinib] (partner 1 µM)
Summary of the method: as §1

[2] = compound: C1CNCCC1C2=CC(=NN2)C3=CC=NC=C3 + CC(=O)c1c(C)c2cnc(Nc3ccc(N4CCNCC4)cn3)nc2n(C2CCCC2)c1=O [Palbociclib] (partner 0.5 µM)
Summary of the method: as §1

[3] = compound: C1CNCCC1C2=CC(=NN2)C3=CC=NC=C3 + N=C(N)NC(=N)NCCc1ccccc1 [Phenformin] (partner 250 µM)
Summary of the method: as §1

Calu-6
relative viability (Tanzisertib + Bortezomib; first compound 0.08 µM): 1.02
relative viability (Tanzisertib + Bortezomib; first compound 0.253 µM): 0.993
relative viability (Tanzisertib + Bortezomib; first compound 0.8 µM): 1.03
relative viability (Tanzisertib + Bortezomib; first compound 2.53 µM): 1.06
relative viability (Tanzisertib + Bortezomib; first compound 8 µM): 1.05
relative viability ([1]; first compound 0.04 µM): 0.761
relative viability ([1]; first compound 0.1265 µM): 0.76
relative viability ([1]; first compound 0.4 µM): 0.741
relative viability ([1]; first compound 1.265 µM): 0.682
relative viability ([1]; first compound 4 µM): 0.489

RERF-LC-KJ
relative viability (Tanzisertib + Bortezomib; first compound 0.08 µM): 1.17
relative viability (Tanzisertib + Bortezomib; first compound 0.253 µM): 1.01
relative viability (Tanzisertib + Bortezomib; first compound 0.8 µM): 1.04
relative viability (Tanzisertib + Bortezomib; first compound 2.53 µM): 1.07
relative viability (Tanzisertib + Bortezomib; first compound 8 µM): 1.02
relative viability ([1]; first compound 0.04 µM): 0.808
relative viability ([1]; first compound 0.1265 µM): 0.893
relative viability ([1]; first compound 0.4 µM): 0.788
relative viability ([1]; first compound 1.265 µM): 0.858
relative viability ([1]; first compound 4 µM): 0.684
relative viability ([2]; first compound 0.08 µM): 0.989
relative viability ([2]; first compound 0.8 µM): 1.14
relative viability ([2]; first compound 2.53 µM): 1.11
relative viability ([2]; first compound 8 µM): 1.06
relative viability ([3]; first compound 0.08 µM): 0.391
relative viability ([3]; first compound 0.8 µM): 0.429
relative viability ([3]; first compound 2.53 µM): 0.438
relative viability ([3]; first compound 8 µM): 0.406

LCLC-103H
relative viability (Tanzisertib + Bortezomib; first compound 0.08 µM): 1.15
relative viability (Tanzisertib + Bortezomib; first compound 0.253 µM): 1.06
relative viability (Tanzisertib + Bortezomib; first compound 0.8 µM): 1.04
relative viability (Tanzisertib + Bortezomib; first compound 2.53 µM): 1.18
relative viability (Tanzisertib + Bortezomib; first compound 8 µM): 1.16
relative viability ([1]; first compound 0.04 µM): 1.19
relative viability ([1]; first compound 0.1265 µM): 1.02
relative viability ([1]; first compound 0.4 µM): 1.13
relative viability ([1]; first compound 1.265 µM): 1.01
relative viability ([1]; first compound 4 µM): 0.903
relative viability ([2]; first compound 0.08 µM): 0.45
relative viability ([2]; first compound 0.8 µM): 0.407
relative viability ([2]; first compound 2.53 µM): 0.485
relative viability ([2]; first compound 8 µM): 0.481
relative viability ([3]; first compound 0.08 µM): 0.318
relative viability ([3]; first compound 0.8 µM): 0.351
relative viability ([3]; first compound 2.53 µM): 0.361
relative viability ([3]; first compound 8 µM): 0.342

HCC-15
relative viability (Tanzisertib + Bortezomib; first compound 0.08 µM): 1.25
relative viability (Tanzisertib + Bortezomib; first compound 0.253 µM): 1.08
relative viability (Tanzisertib + Bortezomib; first compound 0.8 µM): 1.09
relative viability (Tanzisertib + Bortezomib; first compound 2.53 µM): 1.01
relative viability (Tanzisertib + Bortezomib; first compound 8 µM): 1
relative viability ([1]; first compound 0.04 µM): 0.903
relative viability ([1]; first compound 0.1265 µM): 0.781
relative viability ([1]; first compound 0.4 µM): 0.805
relative viability ([1]; first compound 4 µM): 0.72
relative viability ([2]; first compound 0.08 µM): 0.734
relative viability ([2]; first compound 0.8 µM): 0.849
relative viability ([2]; first compound 2.53 µM): 0.79
relative viability ([2]; first compound 8 µM): 0.699
relative viability ([3]; first compound 0.08 µM): 0.401
relative viability ([3]; first compound 0.8 µM): 0.54
relative viability ([3]; first compound 2.53 µM): 0.494
relative viability ([3]; first compound 8 µM): 0.469

H3255
relative viability (Tanzisertib + Bortezomib; first compound 0.08 µM): 0.829
relative viability (Tanzisertib + Bortezomib; first compound 0.253 µM): 0.796
relative viability (Tanzisertib + Bortezomib; first compound 0.8 µM): 0.819
relative viability (Tanzisertib + Bortezomib; first compound 2.53 µM): 0.845
relative viability (Tanzisertib + Bortezomib; first compound 8 µM): 0.427
relative viability ([1]; first compound 0.04 µM): 0.862
relative viability ([1]; first compound 0.1265 µM): 0.979
relative viability ([1]; first compound 0.4 µM): 1.04
relative viability ([1]; first compound 1.265 µM): 0.972
relative viability ([1]; first compound 4 µM): 0.761
relative viability ([2]; first compound 0.08 µM): 0.309
relative viability ([2]; first compound 0.8 µM): 0.338
relative viability ([2]; first compound 2.53 µM): 0.327
relative viability ([2]; first compound 8 µM): 0.346
relative viability ([3]; first compound 0.08 µM): 0.366
relative viability ([3]; first compound 0.8 µM): 0.323
relative viability ([3]; first compound 2.53 µM): 0.429
relative viability ([3]; first compound 8 µM): 0.434

NCI-H1792
relative viability (Tanzisertib + Bortezomib; first compound 0.08 µM): 0.98
relative viability (Tanzisertib + Bortezomib; first compound 0.253 µM): 1.08
relative viability (Tanzisertib + Bortezomib; first compound 0.8 µM): 0.937
relative viability (Tanzisertib + Bortezomib; first compound 2.53 µM): 0.882
relative viability (Tanzisertib + Bortezomib; first compound 8 µM): 0.982
relative viability ([1]; first compound 0.04 µM): 0.964
relative viability ([1]; first compound 0.1265 µM): 0.976
relative viability ([1]; first compound 0.4 µM): 1.08
relative viability ([1]; first compound 1.265 µM): 0.916
relative viability ([1]; first compound 4 µM): 0.854
relative viability ([2]; first compound 0.08 µM): 0.636
relative viability ([2]; first compound 0.8 µM): 0.702
relative viability ([2]; first compound 2.53 µM): 0.718
relative viability ([2]; first compound 8 µM): 0.588
relative viability ([3]; first compound 0.08 µM): 0.231
relative viability ([3]; first compound 0.8 µM): 0.237
relative viability ([3]; first compound 2.53 µM): 0.38
relative viability ([3]; first compound 8 µM): 0.227

NCI-H1563
relative viability (Tanzisertib + Bortezomib; first compound 0.08 µM): 0.957
relative viability (Tanzisertib + Bortezomib; first compound 0.253 µM): 0.859
relative viability (Tanzisertib + Bortezomib; first compound 0.8 µM): 0.917
relative viability (Tanzisertib + Bortezomib; first compound 2.53 µM): 0.829
relative viability (Tanzisertib + Bortezomib; first compound 8 µM): 0.945
relative viability ([1]; first compound 0.04 µM): 0.981
relative viability ([1]; first compound 0.1265 µM): 0.794
relative viability ([1]; first compound 0.4 µM): 0.753
relative viability ([1]; first compound 1.265 µM): 0.883
relative viability ([1]; first compound 4 µM): 0.934
relative viability ([3]; first compound 0.08 µM): 0.619
relative viability ([3]; first compound 0.8 µM): 0.642
relative viability ([3]; first compound 2.53 µM): 0.679
relative viability ([3]; first compound 8 µM): 0.673

NCI-H596
relative viability (Tanzisertib + Bortezomib; first compound 0.08 µM): 1.1
relative viability (Tanzisertib + Bortezomib; first compound 0.253 µM): 0.99
relative viability (Tanzisertib + Bortezomib; first compound 0.8 µM): 1.2
relative viability (Tanzisertib + Bortezomib; first compound 2.53 µM): 0.907
relative viability (Tanzisertib + Bortezomib; first compound 8 µM): 1.1
relative viability ([1]; first compound 0.04 µM): 1.04
relative viability ([1]; first compound 0.1265 µM): 0.899
relative viability ([1]; first compound 0.4 µM): 0.934
relative viability ([1]; first compound 1.265 µM): 0.809
relative viability ([1]; first compound 4 µM): 0.93
relative viability ([3]; first compound 0.08 µM): 0.657
relative viability ([3]; first compound 0.8 µM): 0.841
relative viability ([3]; first compound 2.53 µM): 0.927
relative viability ([3]; first compound 8 µM): 0.86

NCI-H2087
relative viability (Tanzisertib + Bortezomib; first compound 0.08 µM): 0.985
relative viability (Tanzisertib + Bortezomib; first compound 0.253 µM): 0.931
relative viability (Tanzisertib + Bortezomib; first compound 0.8 µM): 0.835
relative viability (Tanzisertib + Bortezomib; first compound 2.53 µM): 0.9
relative viability (Tanzisertib + Bortezomib; first compound 8 µM): 0.857
relative viability ([1]; first compound 0.04 µM): 0.824
relative viability ([1]; first compound 0.1265 µM): 0.538
relative viability ([1]; first compound 0.4 µM): 0.581
relative viability ([1]; first compound 1.265 µM): 0.788
relative viability ([1]; first compound 4 µM): 0.386
relative viability ([2]; first compound 0.08 µM): 0.18
relative viability ([2]; first compound 0.8 µM): 0.22
relative viability ([2]; first compound 2.53 µM): 0.196
relative viability ([2]; first compound 8 µM): 0.276
relative viability ([3]; first compound 0.08 µM): 0.459
relative viability ([3]; first compound 0.8 µM): 0.479
relative viability ([3]; first compound 2.53 µM): 0.496
relative viability ([3]; first compound 8 µM): 0.479

NCI-H661
relative viability (Tanzisertib + Bortezomib; first compound 0.08 µM): 0.859
relative viability (Tanzisertib + Bortezomib; first compound 0.253 µM): 0.64
relative viability (Tanzisertib + Bortezomib; first compound 0.8 µM): 0.874
relative viability (Tanzisertib + Bortezomib; first compound 2.53 µM): 0.567
relative viability (Tanzisertib + Bortezomib; first compound 8 µM): 0.795
relative viability ([1]; first compound 0.04 µM): 0.906
relative viability ([1]; first compound 0.1265 µM): 0.929
relative viability ([1]; first compound 0.4 µM): 1.18
relative viability ([1]; first compound 1.265 µM): 1.02
relative viability ([1]; first compound 4 µM): 0.89
relative viability ([2]; first compound 0.08 µM): 0.416
relative viability ([2]; first compound 0.8 µM): 0.394
relative viability ([2]; first compound 2.53 µM): 0.394
relative viability ([2]; first compound 8 µM): 0.417
relative viability ([3]; first compound 0.08 µM): 0.277
relative viability ([3]; first compound 0.8 µM): 0.263
relative viability ([3]; first compound 2.53 µM): 0.273
relative viability ([3]; first compound 8 µM): 0.273
